Reference: patent publication US12421235B2, “Bridged tricyclic carbamoylpyridone compounds and uses thereof” (Gilead Sciences, Inc., priority 2020, dated 2025)
pEC50: −log10 of the molar value.

Columns and labels:
[1] = tested on: HIV-1 (IIIB) in MT-4 cells; experiment: HIV MT-4 antiviral assay; assay type: cell-based; conditions: Human immunodeficiency virus 1, MT4, 120 h, 5 days, Cell Titer Glo
How it was run: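 MT-4 cells infected with HIV-1 IIIB (1:250 dilution of concentrated stock) were incubated 5 days at 37 °C with compound in 1:3 serial dilutions in RPMI/10% FBS. Viability was read by CellTiter-Glo luminescence. EC50 was the concentration causing a 50% decrease in luminescence signal, from sigmoidal dose-response fits.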

[2] = Cytotoxicity assay in MT-4 cells; assay type: cell-based; conditions: human, uninfected MT-4 cells, Cell Titer Glo
How it was run: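 Uninfected MT-4 cells were incubated with 1:3 serially diluted compound in RPMI/10% FBS for 5 days at 37° C. Viability was read by CellTiter-Glo luminescence, with 10 μM puromycin as the baseline cytotoxicity control. Values are the concentration giving a 50% decrease in luminescence, from sigmoidal dose-response fits.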

[3] = tested on: pLai RLuc reporter virus in MT-4 cells; experiment: HIV MT-4 serum shift antiviral reporter assay; assay type: cell-based; conditions: Human immunodeficiency virus 1, MT4, 72 h, read-out: RLUC CCM
How it was run: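 MT-4 cells pre-infected 2 h with reporter virus, then dosed (1:3 dilutions) in medium with 10% FBS alone or plus 50% human serum; 72 h at 37 °C. Renilla luminescence read; EC50 = 50% signal decrease by sigmoidal fit, serum shift = EC50(HS)/EC50(no HS).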

[4] = High throughput microsomal stability assay (human liver microsomes); assay type: in vitro ADME; conditions: human liver microsomes, 1 uM compound, NADPH + UDPGA cofactors, 37 C
How it was run: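 Compounds at 1 uM final, incubated at 37° C. with liver microsomes (2 mg/ml stock, alamethicin-treated) in pH 7.4 phosphate plus NADPH-regenerating/UDPGA cofactors; samples taken 0–70 min. Parent/IS peak-area ratios read by RapidFire QToF MS; half-life from linear fit of initial log decay, scaled to intrinsic clearance.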

SMILES | pEC50 [1] | CC50 at 5 days [2] [nM] | pEC50 [3] | HLM stability [4] [mL/min/kg]
CC[C@]1(O)CC[C@H](C)N2C[C@H]1n1cc(C(=O)NCc3c(F)cc(F)cc3F)c(=O)c(O)c1C2=O [Example 28, (3S,6S,7R)-6-ethyl-6,12-dihydroxy-3-methyl-1,11-dioxo-N-(2,4,6-trifluorobenzyl)-1,4,5,6,7,11-hexahydro-3H-2,7-methanopyrido[1,2-a][1,4]diazonine-10-carboxamide] | 8.39 | 24400 | 9.02 | 5.67
[2H]C([2H])([2H])[C@]1(O)C=C[C@H](C)N2C[C@H]1n1cc(C(=O)NCc3c(F)cc(F)cc3F)c(=O)c(O)c1C2=O [Example 29, (1R,10S,13S)-6,13-dihydroxy-10-methyl-5,8-dioxo-13-(trideuteriomethyl)-N-[(2,4,6-trifluorophenyl)methyl]-2,9-diazatricyclo[7.4.1.02,7]tetradeca-3,6,11-triene-4-carboxamide] | 8.70 | 13000 | 9.13 | 1.83
[2H]C([2H])([2H])[C@]1(O)CC[C@H](C)N2C[C@H]1n1cc(C(=O)NCc3ccc(F)cc3F)c(=O)c(O)c1C2=O [Example 31, (1R,10S,13S)—N-[(2,4-difluorophenyl)methyl]-6,13-dihydroxy-10-methyl-5,8-dioxo-13-(trideuteriomethyl)-2,9-diazatricyclo[7.4.1.02,7]tetradeca-3,6-diene-4-carboxamide] | 8.68 | 8230 | 9.44 | 3
C[C@H]1CC[C@@](C)(O)[C@H]2CN1C(=O)c1c(O)c(=O)c(C(=O)NCc3ccc(F)cc3F)cn12 [Example 33, (1R,10S,13R)—N-[(2,4-difluorophenyl)methyl]-6,13-dihydroxy-10,13-dimethyl-5,8-dioxo-2,9-diazatricyclo[7.4.1.02,7]tetradeca-3,6-diene-4-carboxamide] | 8.68 | 22800 | 9.44 | 5.83
[2H]C([2H])([2H])O[C@H]1CC[C@H](C)N2C[C@H]1n1cc(C(=O)NCc3ccc(F)cc3F)c(=O)c(O)c1C2=O [Example 34, (3S,6S,7R)—N-(2,4-difluorobenzyl)-12-hydroxy-6-(methoxy-d3)-3-methyl-1,11-dioxo-1,4,5,6,7,11-hexahydro-3H-2,7-methanopyrido[1,2-a][1,4]diazonine-10-carboxamide] | 9.05 | 15100 | 9.38 | 4.17
CO[C@@H]1C[C@H](F)[C@H](C)N2C[C@H]1n1cc(C(=O)NCc3c(F)cc(F)cc3F)c(=O)c(O)c1C2=O [Example 37, (3S,4S,6R,7R)-4-fluoro-12-hydroxy-6-methoxy-3-methyl-1,11-dioxo-N-(2,4,6-trifluorobenzyl)-1,4,5,6,7,11-hexahydro-3H-2,7-methanopyrido[1,2-a][1,4]diazonine-10-carboxamide] | 8.85 | 14800 | 9.19 | 2.83
CO[C@H]1C[C@@H](F)[C@H](C)N2C[C@H]1n1cc(C(=O)NCc3c(F)cc(F)cc3F)c(=O)c(O)c1C2=O [Example 39, (3S,4R,6S,7R)-4-fluoro-12-hydroxy-6-methoxy-3-methyl-1,11-dioxo-N-(2,4,6-trifluorobenzyl)-1,4,5,6,7,11-hexahydro-3H-2,7-methanopyrido[1,2-a][1,4]diazonine-10-carboxamide] | 8.82 | 11700 | 8.82 | 4.67
CO[C@H]1C[C@H](F)[C@H](C)N2C[C@H]1n1cc(C(=O)NCc3c(F)cc(F)cc3F)c(=O)c(O)c1C2=O [Example 40, (3S,4S,6S,7R)-4-fluoro-12-hydroxy-6-methoxy-3-methyl-1,11-dioxo-N-(2,4,6-trifluorobenzyl)-1,4,5,6,7,11-hexahydro-3H-2,7-methanopyrido[1,2-a][1,4]diazonine-10-carboxamide] | 8.96 | 19600 | 8.54 | 4.67
